The text below walks through data of ChEMBL document CHEMBL1201862, “PubChem BioAssay data set” (2004).

Each structure is given as a SMILES string. Active and inactive are the calls of the source.

Experiment [1] has as its target T1, RNA-binding protein pos-1 (Caenorhabditis elegans, UniProt G5EF15).
T1 sequence (G5EF15 whole entry): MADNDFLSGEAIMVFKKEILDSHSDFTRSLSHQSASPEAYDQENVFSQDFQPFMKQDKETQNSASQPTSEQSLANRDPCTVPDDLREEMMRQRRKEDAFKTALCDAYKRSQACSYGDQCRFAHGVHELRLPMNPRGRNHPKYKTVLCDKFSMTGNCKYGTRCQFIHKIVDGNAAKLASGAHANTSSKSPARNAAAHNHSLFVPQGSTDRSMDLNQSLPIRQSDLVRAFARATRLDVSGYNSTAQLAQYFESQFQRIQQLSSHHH
The experiment can be described thus: disruptors of C. elegans POS-1 RNA interaction – biochemical, fluorescence polarization, dose response (AID 1964).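 Also: purified POS-1 fused to maltose binding protein made in E. coli; potency of compounds blocking POS-1 binding to fluorescent RNA.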

Experiment [2] concerns the target T2, Zinc finger protein mex-5 (Caenorhabditis elegans, UniProt Q9XUB2).
T2 sequence (Q9XUB2 whole entry): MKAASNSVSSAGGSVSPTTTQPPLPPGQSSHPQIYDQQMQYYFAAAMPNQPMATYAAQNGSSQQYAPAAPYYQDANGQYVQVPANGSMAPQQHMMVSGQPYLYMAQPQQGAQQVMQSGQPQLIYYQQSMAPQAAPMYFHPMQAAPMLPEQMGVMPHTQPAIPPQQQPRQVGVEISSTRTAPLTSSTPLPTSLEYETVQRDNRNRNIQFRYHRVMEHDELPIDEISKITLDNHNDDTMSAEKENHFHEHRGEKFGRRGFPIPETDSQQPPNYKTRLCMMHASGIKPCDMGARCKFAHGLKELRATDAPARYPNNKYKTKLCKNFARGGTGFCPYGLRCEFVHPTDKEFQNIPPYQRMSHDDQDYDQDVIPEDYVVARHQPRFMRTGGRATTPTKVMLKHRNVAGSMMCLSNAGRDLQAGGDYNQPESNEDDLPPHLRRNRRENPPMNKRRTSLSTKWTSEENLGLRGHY
In words: potency of MEX-5 RNA-binding blockers – biochemical, C. elegans, fluorescence polarization, dose response (AID 1960). For orientation: In fluorescence polarisation assays a small probe gives low polarisation when free and higher when bound to something large.

The target in experiment [3] is Induced myeloid leukemia cell differentiation protein Mcl-1 (Homo sapiens, UniProt Q07820). Format: functional.
The target in another experiment is Troponin, cardiac muscle (Homo sapiens, UniProt P19429+P45379+P63316). In words: compounds desensitizing RTF to calcium – biochemical, fluorescence, cardiac regulated thin filaments, triplicate IC50, dose response (AID 504742). The format is protein-complex assay.
The target of a further experiment is Genome polyprotein (dengue virus type 2, UniProt P29990). In words: flavivirus cap methylation enzyme inhibition – biochemical, confirmation dose response, primary screen (AID 588689). The format is functional.
The target in experiment [4] is T3, Polyadenylate-binding protein 1 (Homo sapiens, UniProt P11940). In words: MLLE binding blockers, Cy5 peptide tracer – biochemical, fluorescence polarization, Cy5-PAM2 peptide, secondary, miRNA deadenylation inhibitor project, dose response (AID 602260). Format: functional. Particulars: read-out: IC50_Mean.
Experiment [5] concerns the target T3, Polyadenylate-binding protein 1. In words: MLLE domain peptide-binding blockers, IC50 – biochemical, fluorescence polarization, FITC-PAM2 peptide, dose response (AID 602259). Particulars: read-out: IC50_Mean. Format: functional.
The target of experiment [6] is T4, Rac GTPase-activating protein 1 (Homo sapiens, UniProt Q9H0H5).
T4 sequence (Q9H0H5 whole entry): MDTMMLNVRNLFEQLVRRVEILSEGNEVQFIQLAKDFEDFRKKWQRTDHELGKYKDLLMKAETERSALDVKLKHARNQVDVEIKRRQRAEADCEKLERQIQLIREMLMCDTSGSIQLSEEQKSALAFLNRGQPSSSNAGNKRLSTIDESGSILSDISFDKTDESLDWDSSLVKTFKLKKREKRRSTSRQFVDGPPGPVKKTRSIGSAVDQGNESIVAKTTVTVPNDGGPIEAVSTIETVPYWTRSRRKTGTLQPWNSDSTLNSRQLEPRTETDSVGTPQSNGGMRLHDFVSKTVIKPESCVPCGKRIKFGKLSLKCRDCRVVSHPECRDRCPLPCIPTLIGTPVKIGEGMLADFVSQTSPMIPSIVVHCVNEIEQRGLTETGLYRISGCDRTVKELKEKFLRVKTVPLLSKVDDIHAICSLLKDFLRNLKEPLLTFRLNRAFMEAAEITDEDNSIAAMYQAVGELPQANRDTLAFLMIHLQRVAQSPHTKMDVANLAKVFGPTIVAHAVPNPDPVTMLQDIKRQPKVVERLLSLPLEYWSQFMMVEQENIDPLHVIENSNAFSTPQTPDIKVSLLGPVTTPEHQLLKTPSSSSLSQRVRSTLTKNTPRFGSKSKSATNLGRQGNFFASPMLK
The experiment can be described thus: blockers of MgcRacGAP-driven Rac1 GTP hydrolysis – biochemical, ADP Hunter fluorescence, primary and confirmatory, confirmation (AID 624330). The format is functional.

Experiment [7] concerns the target Histone-lysine N-methyltransferase NSD2 (Homo sapiens, UniProt O96028). Format: biochemical.
In experiment [8] the target is G-protein coupled receptor 55 (Homo sapiens, UniProt Q9Y2T6). In words: inhibition of LPI-stimulated GPR55 beta-arrestin translocation – imaging, U2OS, beta-arrestin-GFP, LPI agonist, primary screen (AID 2013).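 Also: antagonist potency measured as reduced agonist-driven arrestin aggregation.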 Format: functional.
The next experiment has as its system Cryptococcus neoformans. The experiment can be described thus: PubChem AID 686997. Format: functional, organism-based.
A further experiment deals with Hexokinase (Trypanosoma brucei, UniProt Q38C41). In words: Confirmation assay for inhibitors of Trypanosoma brucei hexokinase 1-Analogue-first series. [Related pubchem assays (depositor defined):AID1430, AID1632, AID2516, AID2560, AID2579, AID2600, AID449725, AID492951]. The format is functional.
For experiment [9], the target named is T5, Tyrosine-protein phosphatase non-receptor type 7 (Homo sapiens, UniProt P35236).
T5 sequence (P35236 whole entry): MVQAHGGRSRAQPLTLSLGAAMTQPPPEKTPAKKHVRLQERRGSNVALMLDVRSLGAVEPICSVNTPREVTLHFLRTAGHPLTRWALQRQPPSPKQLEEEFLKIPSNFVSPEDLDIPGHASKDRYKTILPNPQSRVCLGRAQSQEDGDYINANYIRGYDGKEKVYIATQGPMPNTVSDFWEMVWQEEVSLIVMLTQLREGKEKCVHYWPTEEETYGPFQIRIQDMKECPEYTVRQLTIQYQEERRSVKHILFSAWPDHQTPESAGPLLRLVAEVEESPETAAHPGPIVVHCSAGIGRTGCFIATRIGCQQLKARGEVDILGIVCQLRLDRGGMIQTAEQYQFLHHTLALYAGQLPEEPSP
The experiment can be described thus: redox-active compounds inhibiting HePTP phosphatase – biochemical, fluorescence, mechanism study (AID 2068). Format: functional.

The next experiment concerns the target Mu-type opioid receptor (Homo sapiens, UniProt P35372). The experiment can be described thus: SAR Analysis of Antagonists of the MOR Receptor using an Image-Based Assay - Set 3. [Related pubchem assays (depositor defined):AID1777, AID1785, AID1786, AID1966, AID2133, AID2136, AID2284, AID2285, AID2420]. The format is functional.
Experiment [10] concerns the target Delta-type opioid receptor (Homo sapiens, UniProt P41143). The experiment can be described thus: SAR Analysis of Antagonists of the DOR Receptor using an Image-Based Assay - Set 3. [Related pubchem assays (depositor defined):AID1777, AID1785]. The format is functional.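 Also: U2OS cells expressing DOR1 and beta-arrestin GFP stimulated with 100 nM SNC80; imaging of GFP-tagged beta-arrestin moving into spots after receptor activation.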
In experiment [11] the target is T6, Kappa-type opioid receptor (Homo sapiens, UniProt P41145). The experiment can be described thus: SAR analysis of small molecule antagonists of the kappa opioid receptor via a luminescent beta-arrestin assay - Set 3. [Related pubchem assays (depositor defined):AID1777, AID1778, AID1785, AID1786, AID1966, AID2133, AID2136, AID2285, AID2495]. The format is functional.

Experiment [12] has as its target T6, Kappa-type opioid receptor. The experiment can be described thus: SAR analysis of Antagonists of the Kappa Opioid Receptor (KOR) using an Image-Based Assay - Set 3. [Related pubchem assays (depositor defined):AID1777, AID1785]. The format is functional.
Experiment [13] concerns HEK293. The experiment can be described thus: inhibition of NOD1-driven NF-kB reporter – cell-based, luminescence, uHTS, primary screen (AID 1578). Conditions: Homo sapiens. Format: functional.
The test system of experiment [14] is HEK293. In words: cells. Conditions: Homo sapiens. The format is functional, cell-based.
Experiment [15] has as its system HEK293. In words: cells. Format: functional, cell-based. Conditions: Homo sapiens. This is another data set of the same source.
Experiment [16] deals with Nucleotide-binding oligomerization domain-containing protein 2 (Homo sapiens, UniProt Q9HC29). The experiment can be described thus: inhibition of NOD2-driven NF-kB reporter – cell-based, luminescence, uHTS, HEK293 (AID 1566). The format is functional.
Experiment [17] concerns HEK293. In words: NOD2 signaling inhibitors in MDP-stimulated cells, cell-based, uHTS, luminescence (AID 2001). The format is functional. Conditions: Homo sapiens.
In experiment [18] the test system is HEK293. The experiment can be described thus: cells. Conditions: Homo sapiens. The format is functional, cell-based. This is another data set of the same source.
The target of another experiment is Tumor necrosis factor (Homo sapiens, UniProt P01375). The experiment can be described thus: analog potency on TNFa NF-kB signaling – cell-based, revised, SAR follow-up (AID 2337). Format: functional.
The target in experiment [19] is T7, Nucleotide-binding oligomerization domain-containing protein 1 (Homo sapiens, UniProt Q9Y239).
T7 sequence (Q9Y239 whole entry): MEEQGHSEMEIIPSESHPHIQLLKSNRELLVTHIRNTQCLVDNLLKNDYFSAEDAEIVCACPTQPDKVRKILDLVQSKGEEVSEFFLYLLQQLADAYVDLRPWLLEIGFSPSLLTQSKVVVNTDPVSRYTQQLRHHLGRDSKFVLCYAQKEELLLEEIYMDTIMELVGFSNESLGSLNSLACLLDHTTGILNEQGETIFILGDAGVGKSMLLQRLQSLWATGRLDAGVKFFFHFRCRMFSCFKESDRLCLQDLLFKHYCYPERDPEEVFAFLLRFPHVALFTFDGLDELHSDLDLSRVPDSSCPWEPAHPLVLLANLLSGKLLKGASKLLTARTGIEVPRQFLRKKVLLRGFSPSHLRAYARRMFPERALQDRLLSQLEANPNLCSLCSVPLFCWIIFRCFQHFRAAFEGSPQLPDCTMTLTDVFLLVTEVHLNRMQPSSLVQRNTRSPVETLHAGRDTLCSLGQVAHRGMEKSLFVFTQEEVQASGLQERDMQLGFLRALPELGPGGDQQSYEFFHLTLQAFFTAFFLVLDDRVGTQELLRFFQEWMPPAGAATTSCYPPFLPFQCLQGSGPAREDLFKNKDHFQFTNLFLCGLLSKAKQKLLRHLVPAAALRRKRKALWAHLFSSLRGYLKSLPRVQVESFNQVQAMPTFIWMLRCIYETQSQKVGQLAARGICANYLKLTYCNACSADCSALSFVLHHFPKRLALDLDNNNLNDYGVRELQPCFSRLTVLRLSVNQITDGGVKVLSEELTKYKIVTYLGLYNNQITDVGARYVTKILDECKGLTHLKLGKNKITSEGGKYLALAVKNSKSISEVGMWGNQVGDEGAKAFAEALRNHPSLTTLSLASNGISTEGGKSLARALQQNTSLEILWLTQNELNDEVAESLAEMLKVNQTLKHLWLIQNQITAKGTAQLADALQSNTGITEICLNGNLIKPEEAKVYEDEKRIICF
The experiment can be described thus: blockers of NOD1 pathway activity – revised, SAR follow-up (AID 2333). Format: functional.

Experiment [20] relates to HEK293. In words: cells. Particulars: Homo sapiens.
Experiment [21] deals with T8, Voltage-gated N-type calcium channel alpha-1B subunit/Amyloid beta A4 precursor protein-binding family A member 1 (Homo sapiens, UniProt Q00975+Q02410). The format is protein assay.
In experiment [22] the target is T8, Voltage-gated N-type calcium channel alpha-1B subunit/Amyloid beta A4 precursor protein-binding family A member 1. The format is protein assay. The source holds these as a separate data set.

Usually EC50 stands for the concentration needed to bring the measured effect to its halfway point. Broadly, the AC50 is the concentration at which the activity in the assay is half-maximal. Regarding `O=C(O)c1ccc2nc(-c3ccco3)c(-c3ccco3)nc2c1`, the results for the concentration for a half-maximal effect (EC50) in [1] and in experiment [2] were 19.5 µM (inconclusive) and 10.1 µM (active), respectively. Moreover, the IC50 was > 54 µM (active) in experiment [3]; 20.9 µM (inactive) at Troponin, cardiac muscle; 51 µM (active) at Genome polyprotein; > 66 µM (inactive) in [4]; 53.2 µM (inactive) in experiment [5]; 159 µM (active) in [6]. Also, the AC50 in experiment [7] is 10.8 µM (active).

As for `S=C(Nc1ccc(Cl)cc1Cl)Nc1ccccc1Oc1ccccc1`, in [8], the IC50 was 4.08 µM (active). Besides, the AC50 in the experiment with Cryptococcus neoformans is 44.9 µM (active).

`CN(C)c1ccc(NC(=O)Cn2sc3ccccc3c2=O)cc1`: the IC50 on Hexokinase was 7.29 µM (active).

Regarding `O=C(NCCc1ccccc1)Nc1ccc2nc(-c3ccco3)c(-c3ccco3)nc2c1`, in experiment [9], the IC50 was 0.472 µM (active).

Regarding `COc1ccc(CN(CCNC(=O)c2ccc(CNS(=O)(=O)c3ccc(C)cc3)cc2)C(C)C)cc1`, the IC50 was > 32 µM (inactive) on Mu-type opioid receptor, > 32 µM (inactive) in experiment [10], 2.29 µM (active) in experiment [11] and 0.532 µM (active) in experiment [12].

On to `COc1ccc(N2CCN(C(=O)c3ccc(CNS(=O)(=O)c4ccc(C)cc4)cc3)CC2)cc1`, for which the 50% effective concentration (EC50) in the experiment on HEK293 [13] is 7.09 µM (active); in [16], > 20 µM (inactive). Besides, the IC50 was 10.1 µM (active) in the experiment with HEK293 [14]; 17.5 µM (active) with HEK293 [15]; 12.5 µM (inactive) in the experiment on HEK293 [17]; > 20 µM (inactive) with HEK293 [18]; > 20 µM (inactive) on Tumor necrosis factor; > 20 µM (inactive) in experiment [19]. Moreover, the IC50 in the experiment on HEK293 [20] is > 20 µM (inactive).

For the molecule `Cc1c(C)c2c(OCC(=O)Nc3cccnc3)cc3c(c2oc1=O)CCC(C)(C)O3`, the results for the IC50 in experiment [21] and in experiment [22] were 12.1 µM (active) and > 50 µM (inactive), respectively.
